In US9896441B2 (Lycera Corporation, priority 2014, dated 2018):

Tests used:
RORγ-LBD = molecular target: T1, RORγ-LBD (Homo sapiens, UniProt P51449); test: RORγ-Ligand Binding Domain (LBD) TR-FRET Assay; assay type: biochemical; conditions: for TR-FRET Assay Max Response: maximum response;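 on TR-FRET Assay Max Response: 665/615 nm signal ratio set to 100 without ursolic acid or test compound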
T1 construct: made in house; host or cells: SF9 cells (baculovirus); used as diluted lysate
T1 sequence (P51449 269-508 limits assumed): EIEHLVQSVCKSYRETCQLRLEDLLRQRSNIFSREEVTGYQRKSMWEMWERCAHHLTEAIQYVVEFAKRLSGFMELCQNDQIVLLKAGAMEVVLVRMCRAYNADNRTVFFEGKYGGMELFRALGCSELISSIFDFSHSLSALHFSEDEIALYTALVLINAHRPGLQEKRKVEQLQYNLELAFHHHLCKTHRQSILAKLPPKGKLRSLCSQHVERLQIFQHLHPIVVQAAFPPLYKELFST
Outline: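 SF9 lysate containing His-RORγ-LBD, ~3 nM final; coactivator peptide biotin-SRC1 LXXLL, 200 nM final; ursolic acid 2 μM final; DMSO 1% final; Tris pH 7.0 buffer with KCl, EDTA, DTT, BSA. TR-FRET format.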

Gal4-RORγ-LBD = molecular target: T2, Gal4-RORγ-LBD (Homo sapiens, UniProt P51449); test: Gal4-RORγ Luciferase Reporter Assay in HEK-293T Cells; assay type: cell-based; conditions: HEK-293 cells; for Gal4-RORγ Assay Max Response: maximum response
T2 construct: expressed in transfected cells
T2 sequence (P51449 269-508 limits assumed): T1 sequence (P51449 269-508 limits assumed)
Outline: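 HEK-293 cells were co-transfected with Gal4-RORγ-LBD and a Gal4-luciferase reporter, then exposed overnight at 37 °C to compounds with […] ursolic acid present (0.2% DMSO). Luminescence was read with One-Glo after 10 min at RT, untreated signal was set as 100, and Max Response was taken as the upper plateau of a 4-parameter logistic fit.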

[1] = luciferase reporter, in presence of ursolic acid
[2] = luciferase reporter, with ursolic acid

EC50 (RORγ-LBD; RORγ-LBD TR-FRET assay) | EC50 (Gal4-RORγ-LBD; [1]) | EC50 (RORγ-LBD; RORγ-LBD TR-FRET) | EC50 (Gal4-RORγ-LBD; [2]) | EC50 (RORγ-LBD; with 2 μM ursolic acid (RORγ antagonist), highest test concentration 10 μM) | EC50 (Gal4-RORγ-LBD; ursolic acid present, luciferase readout) | Compound | TR-FRET Assay Max Response (RORγ-LBD; RORγ-LBD TR-FRET assay) | Gal4-RORγ Assay Max Response (Gal4-RORγ-LBD; [1])
< 500 nM | < 500 nM |  |  |  |  | O=S(=O)(c1cccc(C(F)(F)F)c1)N1C[C@H](O)Cc2ccc(/C=C/c3c(F)cccc3Cl)cc21 [Example 163, (R,E)-7-(2-Chloro-6-fluorostyryl)-1-((3-(trifluoromethyl)phenyl)sulfonyl)-1,2,3,4-tetrahydroquinolin-3-ol] | ** (a value in the range of greater than 90 to 150) | ** (a value in the range of greater than 90 to 150)
 |  | < 500 nM | 500 to 5000 nM |  |  | COC(=O)CC[C@H]1CN(S(=O)(=O)c2c(Cl)nc3sccn23)c2cc(/C=C(\C)c3c(F)cccc3Cl)ccc2O1 [Example 86V, (S)-methyl 3-(6-(2-(2-chloro-6-fluorophenyl)prop-1-en-1-yl)-4-((6-chloroimidazo[2,1-b]thiazol-5-yl)sulfonyl)-3,4-dihydro-2H-benzo[b][1,4]oxazin-2-yl)propanoate] |  | 
< 500 nM | < 500 nM |  |  |  |  | C/C(=C\c1ccc2c(c1)N(S(=O)(=O)c1cccc(C(F)(F)F)c1)C[C@H](CCC(=O)N1CC(C)(C(=O)O)C1)O2)c1c(F)cccc1Cl [Example 129I, (S,E)-1-(3-(6-(2-(2-chloro-6-fluorophenyl)-prop-1-en-1-yl)-4-((3-(trifluoromethyl)phenyl)sulfonyl)-3,4-dihydro-2H-benzo[b][1,4]oxazin-2-yl)propanoyl)-3-methylazetidine-3-carboxylic acid] | *** (a value in the range of greater than 150 to 200) | ** (a value in the range of greater than 90 to 150)
< 500 nM | < 500 nM |  |  |  |  | COc1cc(S(=O)(=O)N2C[C@H](CCC(C)(C)O)Oc3ccc(/C=C(\C)c4c(F)cccc4Cl)cc32)ccc1F [Example 120, (S,E)-4-(6-(2-(2-Chloro-6-fluorophenyl)prop-1-en-1-yl)-4-((4-fluoro-3-methoxyphenyl)sulfonyl)-3,4-dihydro-2H-benzo[b][1,4]oxazin-2-yl)-2-methylbutan-2-ol] | *** (a value in the range of greater than 150 to 200) | ** (a value in the range of greater than 90 to 150)
 |  | < 500 nM | < 500 nM |  |  | C/C(=C\c1ccc2c(c1)N(S(=O)(=O)c1cccc(C(F)(F)F)c1)C[C@H]([C@@H](C)O)O2)c1c(F)cccc1Cl [Example 98, (R)-1-((R)-6-((E)-2-(2-Chloro-6-fluorophenyl)prop-1-en-1-yl)-4-((3-(trifluoromethyl)phenyl)sulfonyl)-3,4-dihydro-2H-benzo[b][1,4]oxazin-2-yl)ethan-1-ol] |  | 
 |  | < 500 nM | < 500 nM |  |  | CC(F)(F)c1cccc(S(=O)(=O)N2C[C@H](CCC(=O)O)Oc3ccc(/C=C/c4c(Cl)cccc4C(F)(F)F)cc32)c1 [Example 84, (S,E)-3-(6-(2-Chloro-6-(trifluoromethyl)styryl)-4-((3-(1,1-difluoroethyl)phenyl)sulfonyl)-3,4-dihydro-2H-benzo[b][1,4]oxazin-2-yl)propanoic acid] |  | 
 |  | < 500 nM | < 500 nM |  |  | CC(F)(F)c1cccc(Cl)c1/C=C/c1ccc2c(c1)N(S(=O)(=O)c1cc(C(F)(F)F)cnc1OCCO)C[C@H](CCC(=O)O)O2 [Example 89FI, (S,E)-3-(6-(2-chloro-6-(1,1-difluoroethyl)styryl)-4-((2-(2-hydroxyethoxy)-5-(trifluoromethyl)pyridin-3-yl)sulfonyl)-3,4-dihydro-2H-benzo[b][1,4]-oxazin-2-yl)propanoic acid] |  | 
< 500 nM | < 500 nM |  |  |  |  | C/C(=C\c1ccc2c(c1)N(S(=O)(=O)c1cccc(C(F)(F)F)c1)C[C@H](CO)O2)c1c(F)cccc1Cl [Example 125, (R,E)-(6-(2-(2-Chloro-6-fluorophenyl)prop-1-en-1-yl)-4-((3-(trifluoromethyl)phenyl)sulfonyl)-3,4-dihydro-2-h-benzo[b][1,4]oxazin-2-yl)methanol] | *** (a value in the range of greater than 150 to 200) | ** (a value in the range of greater than 90 to 150)
 |  | < 500 nM | < 500 nM |  |  | O=C(O)CC[C@H]1CN(S(=O)(=O)c2cn(CC(F)F)nc2OCCO)c2cc(/C=C/c3c(Cl)cccc3C(F)(F)F)ccc2O1 [Example 89EF, (S,E)-3-(6-(2-chloro-6-(trifluoromethyl)styryl)-4-((1-(2,2-difluoroethyl)-3-(2-hydroxyethoxy)-1H-pyrazol-4-yl)sulfonyl)-3,4-dihydro-2H-benzo[b][1,4]oxazin-2-yl)propanoic acid] |  | 
< 500 nM | 500 to 5000 nM |  |  |  |  | C/C(=C\c1ccc2c(c1)N(S(=O)(=O)c1cccc(C(F)(F)F)c1)C[C@H](CCCN1CCC(C(=O)O)CC1)O2)c1c(F)cccc1Cl [Example 123, (S,E)-1-(3-(6-(2-(2-Chloro-6-fluorophenyl)prop-1-en-1-yl)-4-((3-(trifluoromethyl)phenyl)sulfonyl)-3,4-dihydro-2H-benzo[b][1,4]oxazin-2-yl)propyl)piperidine-4-carboxylic acid] | ** (a value in the range of greater than 90 to 150) | ** (a value in the range of greater than 90 to 150)
< 500 nM | < 500 nM |  |  |  |  | COc1cc(S(=O)(=O)N2c3cc(OCc4c(F)cccc4Cl)ccc3C=C(CO)[C@H]2C)ccc1F [Example 138, (R)-(7-((2-Chloro-6-fluorobenzyl)oxy)-1-((4-fluoro-3-methoxyphenyl)sulfonyl)-2-methyl-1,2-dihydroquinolin-3-yl)methanol] | ** (a value in the range of greater than 90 to 150) | *** (a value in the range of greater than 150 to 200)
 |  | < 500 nM | 500 to 5000 nM |  |  | C[C@@H](O)COc1ncc(C(F)(F)F)cc1S(=O)(=O)N1C[C@H](CCC(=O)O)Oc2ccc(/C=C/c3c(F)cccc3Cl)cc21 [Example 79, 3-((S)-6-((E)-2-Chloro-6-fluorostyryl)-4-((2-((R)-2-hydroxypropoxy)-5-(trifluoromethyl)pyridin-3-yl)sulfonyl)-3,4-dihydro-2H-benzo[b][1,4]oxazin-2-yl)propanoic acid] |  | 
< 500 nM | < 500 nM |  |  |  |  | COc1cc(S(=O)(=O)N2C[C@H](CNC(C)=O)Oc3c(F)cc(/C=C(\C)c4c(F)cccc4Cl)cc32)ccc1F [Example 108, (S,E)-N-((6-(2-(2-Chloro-6-fluorophenyl)prop-1-en-1-yl)-8-fluoro-4-((4-fluoro-3-methoxyphenyl)sulfonyl)-3,4-dihydro-2H-benzo[b][1,4]oxazin-2-yl)methyl)acetamide] | ** (a value in the range of greater than 90 to 150) | * (a value in the range of 30 to 90)
 |  | < 500 nM | < 500 nM |  |  | CCOc1ncc(C(F)(F)F)cc1S(=O)(=O)N1C[C@H](CCC(=O)O)Oc2ccc(/C=C/c3c(Cl)cccc3OC)cc21 [Example 89FA, (S,E)-3-(6-(2-chloro-6-methoxystyryl)-4-((2-ethoxy-5-(trifluoromethyl)pyridin-3-yl)sulfonyl)-3,4-dihydro-2H-benzo[b][1,4]oxazin-2-yl)propanoic acid] |  | 
< 500 nM | 500 to 5000 nM |  |  |  |  | CCOC(=O)C(C)(C)CC1CC(S(=O)(=O)c2ccc(F)c(OC)c2)c2cc(/C=C(\C)c3c(F)cccc3Cl)ccc2O1 (stereo not shown) [Example 186J, ethyl (E)-3-(6-(2-(2-chloro-6-fluorophenyl)prop-1-en-1-yl)-4-44-fluoro-3-methoxyphenyl)-sulfonyl)chroman-2-yl)-2,2-dimethylpropanoate] | ** (a value in the range of greater than 90 to 150) | ** (a value in the range of greater than 90 to 150)
 |  | < 500 nM | < 500 nM |  |  | COC(=O)CC[C@H]1CN(S(=O)(=O)c2cccc(C(F)F)c2)c2cc(/C=C/c3c(Cl)cccc3C(F)F)ccc2O1 [Example 89EQ, methyl (S,E)-3-(6-(2-chloro-6-(difluoromethyl)styryl)-4-((3-(difluoromethyl)phenyl)-sulfonyl)-3,4-dihydro-2H-benzo[b][1,4]oxazin-2-yl)propanoate] |  | 
 |  |  |  | < 500 nM | < 500 nM | C/C(=C\c1ccc2c(c1)N(S(=O)(=O)c1cccc(C(F)(F)F)c1)C[C@H](CNC(=O)N(C)CCC(=O)O)O2)c1c(F)cccc1Cl [Example 116P, (S,E)-3-(3-((6-(2-(2-chloro-6-fluorophenyl)prop-1-en-1-yl)-4-((3-(trifluoromethyl)phenyl)sulfonyl)-3,4-dihydro-2H-benzo[b][1,4]-oxazin-2-yl)methyl)-1-methylureido)propanoic acid] |  | 
 |  | < 500 nM | 500 to 5000 nM |  |  | CC1(C)CCC(=Cc2ccc3c(c2)N(S(=O)(=O)c2cccc(C(F)(F)F)c2)C[C@H](CCC(=O)O)O3)CC1 [Example 95H, (S)-3-(6-((4,4-dimethylcyclo-hexylidene)methyl)-4-((3-(trifluoromethyl)phenyl)sulfonyl)-3,4-dihydro-2H-benzo[b][1,4]oxazin-2-yl)propanoic acid] |  | 
